Data from PubChem BioAssay AID330 (DTP/NCI, 2004).
Several values for one entry are separate records, joined by “and”; a condition that tells them apart may be missing. Equal values may be shown once. Toxic doses and inconclusive results are not listed.

Test system: P388 leukemia ip, CD2F1 mice, survival T/C
Assay: NCI In Vivo Anticancer Drug Screen. Data for tumor model P388 Leukemia (intraperitoneal) in CD2F1 (CDF1) mice
Details: endpoint: median survival time, higher = longer survival
Method in brief: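 Mice carrying the transplanted tumor received test compound or vehicle. Survival was recorded in each group, and the value is the treated-group measurement divided by that of the vehicle-treated control group.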

[1] = dose: 100.0 mg/kg/injection, schedule: Q01DX009 (ip), vehicle: saline with Tween-80
[2] = dose: 200.0 mg/kg/injection, schedule: Q01DX009 (ip), vehicle: saline with Tween-80
[3] = dose: 60.0 mg/kg/injection, schedule: Q01DX005 (ip), vehicle: saline with Tween-80
[4] = dose: 120.0 mg/kg/injection, schedule: Q01DX005 (ip), vehicle: saline with Tween-80
[5] = dose: 240.0 mg/kg/injection, schedule: Q01DX005 (ip), vehicle: saline with Tween-80
[6] = dose: 50.0 mg/kg/injection, schedule: Q01DX005 (ip), vehicle: Klucel (hydroxypropylcellulose) (HPC)
[7] = dose: 100.0 mg/kg/injection, schedule: Q01DX005 (ip), vehicle: Klucel (hydroxypropylcellulose) (HPC)
[8] = dose: 200.0 mg/kg/injection, schedule: Q01DX005 (ip), vehicle: Klucel (hydroxypropylcellulose) (HPC)
[9] = dose: 50.0 mg/kg/injection, schedule: Q01DX005 (ip), vehicle: saline with Tween-80
[10] = dose: 100.0 mg/kg/injection, schedule: Q01DX005 (ip), vehicle: saline with Tween-80
[11] = dose: 200.0 mg/kg/injection, schedule: Q01DX005 (ip), vehicle: saline with Tween-80
[12] = dose: 100.0 mg/kg/injection, schedule: Q01DX009 (ip), vehicle: saline
[13] = dose: 200.0 mg/kg/injection, schedule: Q01DX009 (ip), vehicle: saline
[14] = dose: 6.25 mg/kg/injection, schedule: Q01DX005 (ip), vehicle: saline with Tween-80
[15] = dose: 12.5 mg/kg/injection, schedule: Q01DX005 (ip), vehicle: saline with Tween-80
[16] = dose: 25.0 mg/kg/injection, schedule: Q01DX005 (ip), vehicle: saline with Tween-80

CC(C)(C)SSC(=S)C(c1ccccc1)c1ccccc1
T/C (dose: 50.0 mg/kg/injection, schedule: Q01DX005 (ip), vehicle: saline + Tween-80 + alcohol): 105 % of control
T/C (dose: 100.0 mg/kg/injection, schedule: Q01DX005 (ip), vehicle: saline + Tween-80 + alcohol): 107 % of control
T/C (dose: 200.0 mg/kg/injection, schedule: Q01DX005 (ip), vehicle: saline + Tween-80 + alcohol): 96 % of control

COP(=O)(O)OC.[Th]
T/C (dose: 50.0 mg/kg/injection, schedule: Q01DX009 (ip), vehicle: saline with Tween-80): 118 % of control
T/C [1]: 88 % of control
T/C [2]: 90 % of control

COc1ccc(C2Cc3cc(OC)c(OC)cc3C(c3ccc(OC)c(OC)c3)N2)cc1OC (stereo unspecified)
T/C [3]: 97 % of control
T/C [4]: 88 % of control
T/C [5]: 89 % of control

O=C1S/C(=C2\C(=O)N(CN3CCOCC3)c3ccc(Br)cc32)C(=O)N1CN1CCOCC1
T/C [6]: 100 % of control
T/C [7]: 106 % of control
T/C [8]: 102 % of control

O=c1cc(-c2ccccc2)oc2c1CCCC2
T/C [6]: 101 % of control
T/C [7]: 97 % of control
T/C [8]: 101 % of control

CCOC(=O)N1C=CC2Oc3c(Cl)c(Cl)c(Cl)c(Cl)c3OC2C=N1 (stereo unspecified)
T/C (dose: 60.0 mg/kg/injection, schedule: Q01DX005 (ip), vehicle: Klucel (hydroxypropylcellulose) (HPC)): 102 % of control
T/C (dose: 120.0 mg/kg/injection, schedule: Q01DX005 (ip), vehicle: Klucel (hydroxypropylcellulose) (HPC)): 101 % of control
T/C (dose: 240.0 mg/kg/injection, schedule: Q01DX005 (ip), vehicle: Klucel (hydroxypropylcellulose) (HPC)): 101 % of control

CN(C)c1ccc(/C=[N+](\[O-])C(C)(C)CO)cc1
T/C (dose: 6.25 mg/kg/injection, schedule: Q01DX009 (ip), vehicle: saline with Tween-80): 100 % of control
T/C (dose: 12.5 mg/kg/injection, schedule: Q01DX009 (ip), vehicle: saline with Tween-80): 102 % of control
T/C (dose: 25.0 mg/kg/injection, schedule: Q01DX009 (ip), vehicle: saline with Tween-80): 100 % of control
T/C [1]: 96 % of control
T/C [2]: 97 % of control

CC1=CC(=O)C2OC(=O)CC3C=CCC1C32C (stereo unspecified)
T/C (dose: 25.0 mg/kg/injection, schedule: Q01DX005 (ip), vehicle: Klucel (hydroxypropylcellulose) (HPC)): 99 % of control
T/C [6]: 103 % of control
T/C [7]: 103 % of control

COC(=O)NC1(NC(=O)OC)NC(=O)c2ccccc2N1
T/C (dose: 25.0 mg/kg/injection, schedule: Q01DX005 (ip), vehicle: DMSO): 98 % of control
T/C (dose: 50.0 mg/kg/injection, schedule: Q01DX005 (ip), vehicle: DMSO): 100 % of control

CCN=C1SC2C(=O)N(C)C(S1)C(=O)N2C
T/C (dose: 6.25 mg/kg/injection, schedule: Q04DX002 (ip), vehicle: saline): 100 % of control
T/C (dose: 12.5 mg/kg/injection, schedule: Q04DX002 (ip), vehicle: saline): 103 % of control
T/C (dose: 25.0 mg/kg/injection, schedule: Q04DX002 (ip), vehicle: saline): 105 % of control

O=C(CC(O)(C(F)(F)F)C(F)(F)F)c1ccco1
T/C (dose: 33.0 mg/kg/injection, schedule: Q01DX009 (ip), vehicle: saline with Tween-80): 110 % of control

CC1=C(/C=C/C(C)=C/C=C/C(C)=C/CO)C(C)(C)CCC1
T/C [9]: 98 % of control
T/C [10]: 94 % of control
T/C (dose: 100.0 mg/kg/injection, schedule: Q04DX003 (ip), vehicle: saline with Tween-80): 100 % of control
T/C [11]: 116 % of control
T/C (dose: 200.0 mg/kg/injection, schedule: Q04DX003 (ip), vehicle: saline with Tween-80): 100 % of control

CC(=O)OC1CCC2CC3(CCC1(C)C2=O)OCCO3 (stereo unspecified)
T/C (dose: 100.0 mg/kg/injection, schedule: Q04DX003 (ip), vehicle: saline + Tween-80 + alcohol): 100 % of control
T/C (dose: 200.0 mg/kg/injection, schedule: Q04DX003 (ip), vehicle: saline + Tween-80 + alcohol): 99 % of control
T/C (dose: 400.0 mg/kg/injection, schedule: Q04DX003 (ip), vehicle: saline + Tween-80 + alcohol): 103 % of control

CCOC(=O)CCCCc1cccc2ccccc12
T/C (dose: 50.0 mg/kg/injection, schedule: Q01DX009 (ip), vehicle: other): 103 % of control
T/C (dose: 100.0 mg/kg/injection, schedule: Q01DX009 (ip), vehicle: other): 100 % of control
T/C (dose: 200.0 mg/kg/injection, schedule: Q01DX009 (ip), vehicle: other): 107 % of control

O=C(O)Cc1csc(=S)n1Cc1ccccc1
T/C [9]: 100 % of control
T/C [10]: 102 % of control
T/C [11]: 90 % of control

O=[N+]([O-])c1ccc(N2c3ccccc3SC2c2ccco2)c([N+](=O)[O-])c1 (stereo unspecified)
T/C (dose: 1.5 mg/kg/injection, schedule: Q01DX005 (ip), vehicle: saline with Tween-80): 102 % of control
T/C (dose: 3.0 mg/kg/injection, schedule: Q01DX005 (ip), vehicle: saline with Tween-80): 102 % of control
T/C (dose: 6.0 mg/kg/injection, schedule: Q01DX005 (ip), vehicle: saline with Tween-80): 91 % of control

COc1ccc(/C=N\N=C(/[O-])c2ccc(Cl)cc2)cc1.COc1ccc(/C=N\N=C(/[O-])c2ccc(Cl)cc2)cc1.[Co+2].[OH3+].[OH3+]
T/C (dose: 100.0 mg/kg/injection, schedule: Q04DX002 (ip), vehicle: saline with Tween-80): 93 % of control
T/C (dose: 200.0 mg/kg/injection, schedule: Q04DX002 (ip), vehicle: saline with Tween-80): 102 % of control
T/C (dose: 400.0 mg/kg/injection, schedule: Q04DX002 (ip), vehicle: saline with Tween-80): 103 % of control

CC1CNCC(C)N1Cc1ccccc1 (stereo unspecified)
T/C (dose: 50.0 mg/kg/injection, schedule: Q01DX005 (ip), vehicle: saline): 108 % of control
T/C (dose: 100.0 mg/kg/injection, schedule: Q01DX005 (ip), vehicle: saline): 99 % of control

O=C1C2CCN(CC2)C1(CO)CO
T/C (dose: 50.0 mg/kg/injection, schedule: Q01DX009 (ip), vehicle: saline): 102 % of control
T/C [12]: 105 % of control
T/C [13]: 105 % of control

C/C(=N\NC(=S)N(C)C1CCCCC1)c1ccc2ccccc2n1
T/C [14]: 103 % of control and 114 % of control
T/C [15]: 111 % of control and 115 % of control
T/C [16]: 150 % of control

CC1(c2ccc(S(=O)(=O)c3ccccc3)cc2)OC(=O)C=CC1=O (stereo unspecified)
T/C [14]: 89 % of control
T/C [15]: 89 % of control
T/C [16]: 115 % of control
T/C [9]: 120 % of control

CCCCCCCCCCCCCCN1CCCN(CCCCCCCCCCCCCC)CC1
T/C [3]: 92 % of control
T/C [4]: 94 % of control
T/C [5]: 88 % of control

O=C(O)c1ccc(=O)[nH]c1
T/C [12]: 101 % of control and 107 % of control
T/C [13]: 110 % of control and 118 % of control
T/C (dose: 400.0 mg/kg/injection, schedule: Q01DX009 (ip), vehicle: saline): 100 % of control and 109 % of control
T/C (dose: 600.0 mg/kg/injection, schedule: Q01DX009 (ip), vehicle: saline): 104 % of control and 106 % of control
